The record followed here is patent US20090270447A1, “2-Aryl-and 2-Heteroarylthiazolyl Compounds, Methods for Their Preparation and Use Thereof” (Wyeth, priority 2008, published 2009).

In series [1] the test system is HCT116 cells (Securin+/+, securin parental cell line HCT116 FB). Nature of the series: Growth inhibition of securin parental cells (SRB, 5 days). Format: cell-based. The conditions noted are these: Homo sapiens, HCT-116, 120 h. How it is done:
(§1) IC50 analysis was performed for selected fused heterobicyclic 2-aryl or 2-heteroarylthiazolyl compounds that were tested on HCT116 cells and Securin “knock out” cell lines.
(§2) Cell Culture—HCT116 and securin “knock out” cells. HCT116 and securin “knock out” cells (D8 and F3) were grown in RPMI+5% fetal bovine serum and gentamycin. They were maintained in a humidified 37° C. incubator with 5% CO2. Since the securin “knock out” cells have active chromosomal instability, cells were used at a low passage number of 2-13 passages. At or before passage 13 a new vial of cells was thawed and used for the screen. Cell seeding—HCT116 cells and securin “knock out” cells were trypsinized and suspenended in RPMI+5% FBS at a density of 27,000 cells/mL. HCT116 and securin “knock out” cells were seeded separately in wells of a 96-well plate (Falcon Cat # 35-3872) at a cell density of 4000 cells per well. Cells were seeded in 150 μL of RPMI media containing 5% FBS and gentamycin. Cell seeding was performed under aseptic conditions. Cells were allowed to attach and grow overnight in a humidified 37° C. incubator.
(§3) Compound Dilution and Dispensation. A series of stock solutions, 10 mg/ml of 2-aryl- or 2-heteroarylthiazolyl compounds to be tested, were brought to room temperature. The compounds were diluted 1:50 in RPMI+5% FBS (Highest concentration 200 μg/mL). The compounds were then serially diluted 1:3 across a deep-well titration plate resulting in final concentrations in the plate of 200, 66.7, 22.2, 7.4, 2.4, 0.8 0.27, 0.091, 0.03, 0.01, and 0.0034 μg/mL with one well left without a compound. 50 μL of this dilution series was added to the 150 μL of cells to result in a final concentration of compound in with the cells of 50, 16.6, 5.5, 1.8, 0.6, 0.2, 0.068, 0.023, 0.0076, 0.0025, and 0.00084 μg/mL. The dilution and addition of compounds to the plates is performed using a Multimek 96 Robot (Beckman Coulter).
(§4) Incubation and analysis. After dosing, the cells in the 96 well plates were returned to the humidified 37° C. incubator. The compounds remained on the cells for 5 days. After 5 days, the cells were fixed to the plates with the addition of 50 μL of 50% (vol/vol) Trichloro Acetic Acid ([…]). The cells were fixed at 4° C. for 1 hour. The plates were washed 5 times in distilled water and allowed to dry. The cells were stained with 0.4% sulforhodamine B (Sigma) in 1% acetic acid. The cells were stained for 15 minutes at room temperature. The plates were then washed 3 times in 1% acetic acid. The plates were dried and the dye was solubilized in 10 mM Tris at pH 8.0. The plates were read on the Absorbence 560 setting on a Victor^2 V Model 1420 Multilabel HTS counter (Perkin Elmer).
(§5) Analysis of Results—IC50 data. Absorbence data was read off of the Victor and was converted to a percentage of the control (untreated) values. IC50 values were graphed and the point at which a 50% inhibition of the control level was determined. […] If the model was not able to determine an IC50, the IC50 was assigned to the lowest concentration that gives a 50% or greater decrease in absorbence compared to control levels. If the calculated IC50 value for a cell line exceeds the top concentration for the assay (typically 50 μg/mL), the assay was scored as >50.

The subject of series [2] is securin "knock out" cells D8 (Securin−/−). Nature of the series: Growth inhibition of securin knock out cells D8 (SRB, 5 days). The format is cell-based. The conditions noted are these: for IC50: 120 h, securin knock out D8 cells, 5 days, SRB; for Selectivity Ratio D8: IC50 HCT116 / IC50 securin KO D8. How it is done: as §1, §2, §3, §4, §5
(§6) Selectivity Ratio. The Selectivity Ratio is the ratio of IC50s between the parent cell line and the knock out cell line and is always a positive number and is typically an integer.

Series [3] deals with securin "knock out" cells F3 (Securin−/−). Nature of the series: Growth inhibition of securin knock out cells F3 (SRB, 5 days). The conditions noted are these: for IC50: 120 h, securin knock out F3 cells, 5 days, SRB; for Selectivity Ratio F3: IC50 HCT116 / IC50 securin KO F3. The format is cell-based. How it is done:
as §1, §2, §3, §4, §5, §6

For series [4], the system named is xenografts of a human breast carcinoma cell line (MDA-MB-361). As to the kind of experiment: In-vivo activity in tumor xenografts. How it is done:
Selected fused heterobicyclic 2-aryl- or 2-heteroarylthiazolyl compounds of formula I were tested for their activity in a securin parental cell line (HCT116 FB) and a securin knockout (KO) cell line. […] The in-vivo activity of selected fused heterobicyclic 2-arylarylthiazolyl compounds of formula I was studied in cells growing as xenografts in athymic (nude) mice. The effect of Examples 5-7 and 10 was studied in xenografts of a human breast carcinoma cell line (MDA-MB-361).
In-vivo Activity in Tumor Xenografts. The effectiveness of Examples 5-7 versus Vincristine at controlling tumor growth was studied and the results are summarized in Table 2 and FIG. 1. The 2-arylthiazolyl compounds were formulated 0.5% Methocel™ (methylcellulose) and 0.4% Tween 80™ (polysorbate-80 and oleic acid) and administered daily orally (PO), by gavage or intraperiotenially (IP) by syringe. Tumor mass [(length×width^2)/2] was determined every 7 days. Inhibition of tumor growth was calculated relative to conventional (vehicle treated) controls.

The mark [5] stands for this setting: 20 mg/kg/dose PO, days 1 through 20.
Setting [6] is: 50 mg/kg/dose PO, days 1 through 20.
Where [7] appears, read: 0.8 mg/kg/dose IP, days 1, 5 and 9.

In the case of `CN(C)c1ccc(-c2nc3c(s2)C(O)CNC3)cc1` (racemic) [Example 2, 2-(4-dimethylamino-phenyl)-4,5,6,7-tetrahydro[1,3]thiazolo[4,5-c]pyridin-7-ol], the IC50 in series [1] came out at 86.4 µM. Besides, in series [2], the IC50 turned out to be 0.931 µM and the “Selectivity Ratio D8” value stood at 93. Besides, in series [3], the IC50 amounted to 1.28 µM and the “Selectivity Ratio F3” value was 68.
Turning to `OCc1cc(N2CCCC2)ccc1-c1nc2c(s1)C(O)CNC2` (racemic) [Example 10, (7R,7S)-2-(2-hydroxymethyl-4-pyrrolidin-1-yl-phenyl)-4,5,6,7-tetrahydro[1,3]thiazolo[4,5-c]pyridin-7-ol], the 50% inhibitory concentration (IC50) in series [1] turned out to be 80.6 µM. Also, in series [2], the “selectivity ratio (IC50 HCT116 FB/IC50 securin KO), in words” value is on record as “high selectivity ratio”; the IC50 amounted to 0.0808 µM; the “Selectivity Ratio D8” value is reported as 998. For the same compound, in series [3], half-maximal inhibition (IC50) required 0.0944 µM and the “Selectivity Ratio F3” value came to 854.
Consider `OC1CCCc2nc(-c3ccc(N4CCCC4)cc3)sc21` (stereo not shown) [2-(4-pyrrolidiny-1-ylphenyl)-4,5,6,7-tetrahydro-1,3-benzothiazol-7-ol, reference compound], for which, in series [4] (setting [5]), the “S/T = # of Survivors/# of Treated on Day +21 post tumor staging” value is given as 10/10, the “% T/C Day 7” value amounted to 101%, the “Relative Tumor Growth Day 7” value is recorded as 1.67 and the “% T/C Day 14” value amounted to 109%. In series [4] (setting [5]), the “Relative Tumor Growth Day 14” value is recorded as 5.48, the “% T/C Day 21” value turned out to be 132% and the “Relative Tumor Growth Day 21” value was found to be 12.07. For the same compound, in series [4] (setting [6]), the “S/T = # of Survivors/# of Treated on Day +21 post tumor staging” value is listed as 10/10, the “% T/C Day 7” value is on record as 95%, the “Relative Tumor Growth Day 7” value is listed as 1.57 and the “% T/C Day 14” value came to 78%. In addition, in series [4] (setting [6]), the “Relative Tumor Growth Day 14” value turned out to be 3.93, the “% T/C Day 21” value is on record as 95% and the “Relative Tumor Growth Day 21” value is listed as 8.73.
Turning to `CN1Cc2nc(-c3ccc(N(C)C)cc3)sc2C(O)C1` (stereo not shown) [Example 1, 2-(4-dimethylamino-phenyl)-5-methyl-4,5,6,7-tetrahydro[1,3]thiazolo[4,5-c]pyridine-7-ol], the IC50 in series [1] came to 23.9 µM. In series [2], the half-maximal inhibitory concentration (IC50) is 2.48 µM and the “Selectivity Ratio D8” value stood at 10. Also, in series [3], 3.07 µM corresponded to half-maximal inhibition (IC50) and the “Selectivity Ratio F3” value came to 8.
The corresponding values for `CN(C)c1ccc(-c2nc3c(s2)[C@H](O)CNC3)cc1` [Example 3, (R)-2-(4-dimethylamino-phenyl)-4,5,6,7-tetrahydro[1,3]thiazolo[4,5-c]pyridin-7-ol] are 66.4 µM, 0.395 µM, 168, 0.555 µM and 120.
In the same order, the values of `CN(C)c1ccc(-c2nc3c(s2)[C@@H](O)CNC3)cc1` [Example 4, (S)-2-(4-dimethylamino-phenyl)-4,5,6,7-tetrahydro[1,3]thiazolo[4,5-c]pyridin-7-ol] are 169 µM, 2.19 µM, 77, 3.39 µM and 50.
In the same order, the values of `CN(C)c1ccc(-c2nc3c(s2)C(O)CNC3)c(CO)c1` (stereo not shown) [Example 8, 2-(2-hydroxymethyl-4-dimethylamino-phenyl)-4,5,6,7-tetrahydro[1,3]thiazolo[4,5-c]pyridine-7-ol] are 100 µM, 0.0989 µM, 1011, 0.107 µM and 936.
With `COC(=O)c1cc(N(C)C)ccc1-c1nc2c(s1)C(O)CNC2` (stereo not shown) [Example 9, methyl 5-(dimethylamino)-2-(7-hydroxy-4,5,6,7-tetrahydro[1,3]thiazolo[4,5-c]pyridin-2-yl)benzoate], the IC50 in series [1] came out at 100 µM; in series [2] it was 0.53 µM; in series [3], 0.67 µM. Besides, the “Selectivity Ratio D8” value in series [2] was 189. Moreover, the “Selectivity Ratio F3” value in series [3] came to 149.
The corresponding values for `OCc1cc(N2CCCC2)ccc1-c1nc2c(s1)[C@H](O)CNC2` [Example 11, (7R)-2-(2-hydroxymethyl-4-pyrrolidin-1-yl-phenyl)-4,5,6,7-tetrahydro[1,3]thiazolo[4,5-c]pyridin-7-ol] are 91.4 µM, 0.0406 µM, 0.0483 µM, 2251 and 1892.
In the same order, the values of `COC(=O)c1cc(N2CCCC2)ccc1-c1nc2c(s1)C(O)CNC2` (stereo not shown) [Example 13, Methyl 5-(4-pyrrolidin-1-yl)-2-(7-hydroxy-4,5,6,7-tetrahydro[1,3]thiazolo[4,5-c]pyridin-2-yl)benzoate] are 59.2 µM, 0.342 µM, 0.516 µM, 173 and 115.
The corresponding values for `Nc1cc(N2CCCC2)ccc1-c1nc2c(s1)C(O)CNC2` (stereo not shown) [Example 14, 2-(2-amino-4-pyrrolidin-1-yl-phenyl)-4,5,6,7-tetrahydro[1,3]thiazolo[4,5-c]pyridin-7-ol] are 48.1 µM, 0.0379 µM, 0.0486 µM, 1269 and 990.
As for `O=[N+]([O-])c1cc(N2CCCC2)ccc1-c1nc2c(s1)C(O)CNC2` (stereo not shown) [Example 15, 2-(2-nitro-4-pyrrolidin-1-yl-phenyl)-4,5,6,7-tetrahydro[1,3]thiazolo[4,5-c]pyridin-7-ol], the IC50 in series [1] was determined as 28.4 µM. For the same compound, in series [2], half-maximal inhibition (IC50) required 2.95 µM and the “Selectivity Ratio D8” value came to 10. In series [3], the IC50 was determined as 4.6 µM and the “Selectivity Ratio F3” value turned out to be 6.
`CC[C@]1(O)C[C@H]2CN(CCc3c([nH]c4ccccc34)[C@@](C(=O)OC)(c3cc4c(cc3OC)N(C=O)[C@H]3[C@@](O)(C(=O)OC)[C@H](OC(C)=O)[C@]5(CC)C=CCN6CC[C@]43[C@@H]65)C2)C1` [Vincristine, reference compound]: in series [4] (setting [7]), the “% T/C Day 7” value was found to be 80%, the “Relative Tumor Growth Day 7” value came to 1.33, the “% T/C Day 14” value amounted to 43% and the “Relative Tumor Growth Day 14” value is given as 2.14. Further, in series [4] (setting [7]), the “% T/C Day 21” value was 58% and the “Relative Tumor Growth Day 21” value was 5.29.
